Measured values taken from the NIST ThermoML archive (doi:10.1016/j.jct.2019.02.004).
± gives the expanded uncertainty stated by the source.

Tests used:
[1] = Crystal; DTA
[2] = Molar enthalpy of transition or fusion; conditions: Crystal; DSC

## CC(=O)Nc1ccc(Cl)cc1 [N(4-chlorophenyl)ethanamide]
[1]
  Normal melting temperature: 175.7 ± 1.1 °C
[2]
  Molar enthalpy of transition or fusion: 6.49 ± 0.234 kcal/mol
